Laboratory results: ChEMBL document CHEMBL1201862, “PubChem BioAssay data set” (2004)
Calls of active or inactive are those of the source.

Experiments:
Large T antigen = Large T antigen (Simian virus 40, UniProt P03070); assay type: functional, Betapolyomavirus macacae;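 further: Confirmatory-stage PubChem screen for compounds that inhibit SV40 T antigen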
Trypsin = Trypsin (Sus scrofa, UniProt P00761); assay: porcine trypsin inhibitors, dose response, selectivity assay for Rce1 protease inhibitor project, biochemical, quenched peptide fluorescence, cherry-pick (AID 488789)
Trypsin, sequence (P00761 whole entry): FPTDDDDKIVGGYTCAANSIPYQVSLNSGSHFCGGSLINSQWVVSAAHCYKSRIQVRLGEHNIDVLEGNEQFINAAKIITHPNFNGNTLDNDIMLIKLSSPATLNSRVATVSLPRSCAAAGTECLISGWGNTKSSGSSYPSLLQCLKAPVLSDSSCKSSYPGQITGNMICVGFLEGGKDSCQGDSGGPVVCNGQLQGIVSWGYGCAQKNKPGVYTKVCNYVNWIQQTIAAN

CAAX prenyl protease 2 [1] = molecular target: T1, CAAX prenyl protease 2 (Saccharomyces cerevisiae S288c, UniProt Q03530); assay type: biochemical
T1 sequence (Q03530 whole entry): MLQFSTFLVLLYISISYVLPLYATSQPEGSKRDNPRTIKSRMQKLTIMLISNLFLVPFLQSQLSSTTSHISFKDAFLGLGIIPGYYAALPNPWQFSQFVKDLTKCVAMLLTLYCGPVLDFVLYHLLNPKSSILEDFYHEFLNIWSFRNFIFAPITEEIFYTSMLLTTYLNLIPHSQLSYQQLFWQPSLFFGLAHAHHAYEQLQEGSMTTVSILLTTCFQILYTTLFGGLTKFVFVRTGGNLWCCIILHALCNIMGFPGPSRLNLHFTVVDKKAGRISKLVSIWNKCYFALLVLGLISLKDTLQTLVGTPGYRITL

CAAX prenyl protease 2 [2] = molecular target: CAAX prenyl protease 2 (Homo sapiens, UniProt Q9Y256); assay: human Rce1 protease inhibitors, dose response, biochemical, yeast membranes, quenched-peptide fluorescence, cherry-pick (AID 588849)
CAAX prenyl protease 2 (Homo sapiens, UniProt Q9Y256), sequence (Q9Y256 whole entry): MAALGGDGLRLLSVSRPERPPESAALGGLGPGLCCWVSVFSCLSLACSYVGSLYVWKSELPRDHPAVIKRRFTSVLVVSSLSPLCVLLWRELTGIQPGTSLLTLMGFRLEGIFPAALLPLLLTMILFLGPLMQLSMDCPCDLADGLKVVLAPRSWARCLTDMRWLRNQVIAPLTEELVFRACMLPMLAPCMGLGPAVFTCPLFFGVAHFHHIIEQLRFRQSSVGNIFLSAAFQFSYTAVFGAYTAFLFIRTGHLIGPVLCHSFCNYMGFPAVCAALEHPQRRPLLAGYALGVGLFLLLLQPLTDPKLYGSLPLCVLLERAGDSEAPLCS

HeLa = assay: HeLa cell cytotoxicity, dose response, cytotoxicity control for MITF activator project, CellTiter-Glo luminescence, cherry-pick samples (AID 540259); assay type: functional, cell-based; conditions: Homo sapiens
Escherichia coli = assay: microbe, parasite or virus in culture
[3] = tested on: Streptococcus sp. 'group A'; assay: growth inhibition of control SK(-) GAS strain, dose response, counter-screen for streptokinase expression inhibitor project, luminescence, kanamycin, BacTiterGlo, confirmation (AID 1900); assay type: functional, organism-based
Streptococcus [4] = assay: Luminescence Microorganism-Based Dose Response Follow up to Identify Compounds Cytotoxic to Streptococcus. [Related pubchem assays: 1677 (Project Summary), 1915, 1914, 1902 (Retest at Dose), 1900 (Counter Screen), 1662 (Primary HTS)]; assay type: functional, organism-based
Streptokinase A = molecular target: T2, Streptokinase A (Streptococcus pyogenes serotype M1, UniProt P10520); assay: S. pyogenes streptokinase expression inhibitors, potency, dose response, plasminogen activation absorbance, OD405 (AID 1914); assay type: functional, Streptococcus pyogenes M1 GAS;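 further: secreted streptokinase activity via plasminogen activation per viability signal from cell pellet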
T2 sequence (P10520 whole entry): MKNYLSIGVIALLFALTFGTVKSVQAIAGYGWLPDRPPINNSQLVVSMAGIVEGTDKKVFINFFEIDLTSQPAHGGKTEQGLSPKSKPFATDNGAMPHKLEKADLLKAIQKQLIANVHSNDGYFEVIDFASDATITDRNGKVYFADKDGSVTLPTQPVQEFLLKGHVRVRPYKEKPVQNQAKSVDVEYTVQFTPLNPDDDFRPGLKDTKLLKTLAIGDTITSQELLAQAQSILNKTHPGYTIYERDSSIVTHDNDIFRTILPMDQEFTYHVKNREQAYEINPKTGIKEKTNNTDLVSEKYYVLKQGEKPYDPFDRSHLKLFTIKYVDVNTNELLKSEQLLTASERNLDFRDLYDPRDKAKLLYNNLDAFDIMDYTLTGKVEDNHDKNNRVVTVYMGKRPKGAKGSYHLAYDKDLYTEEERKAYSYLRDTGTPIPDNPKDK

Streptococcus [5] = assay: Group A Streptococcus viability loss, dose response, counter-screen for streptokinase expression inhibitor project, luminescence, BacTiterGlo (AID 1915); assay type: functional, organism-based;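 further: potency for reduction of bacterial viability or growth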
[6] = Luminescence Cell-Based Dose Retest to Confirm Inhibitors of Cancer Stem Cells. [Related pubchem assays (depositor defined):AID2717, AID2721]; assay type: functional; conditions: Homo sapiens
[7] = molecular target: T3, Heat shock factor protein 1 (Mus musculus, UniProt P38532); assay: HSF1 potentiators in luciferase reporter cells, confirmation, cell-based, NIH3T3, luminescence, dose retest (AID 435004); assay type: functional;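 further: stress induced by proteasome inhibitor MG132 added 30 min after compound; luciferase reporter driven by HSF1 response element in NIH3T3 cells; actives raise luminescence as potentiators of the MG132 stress response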
T3 sequence (P38532 whole entry): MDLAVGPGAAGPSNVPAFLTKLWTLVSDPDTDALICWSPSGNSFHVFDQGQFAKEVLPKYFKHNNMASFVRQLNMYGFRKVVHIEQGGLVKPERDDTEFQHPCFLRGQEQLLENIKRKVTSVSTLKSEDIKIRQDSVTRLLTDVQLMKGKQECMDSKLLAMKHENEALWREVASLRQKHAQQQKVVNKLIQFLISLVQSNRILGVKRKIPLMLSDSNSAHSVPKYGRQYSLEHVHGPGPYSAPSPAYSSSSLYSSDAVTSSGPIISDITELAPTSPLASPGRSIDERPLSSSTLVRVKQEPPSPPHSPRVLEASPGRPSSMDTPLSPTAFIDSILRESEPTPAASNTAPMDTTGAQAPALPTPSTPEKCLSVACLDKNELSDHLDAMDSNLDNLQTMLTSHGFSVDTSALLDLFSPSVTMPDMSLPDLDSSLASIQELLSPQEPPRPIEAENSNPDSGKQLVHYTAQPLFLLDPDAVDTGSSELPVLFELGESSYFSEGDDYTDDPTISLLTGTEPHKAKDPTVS

[8] = molecular target: Heat shock protein HSP 90-alpha (Homo sapiens, UniProt P07900); assay type: functional, organism-based
[9] = inhibitors of HIV Env-driven cell fusion, dose response, cherry-pick (AID 652057); assay type: functional, cell-based
[10] = CEM21 lymphoblast cell cytotoxicity, dose response, cytotoxicity control for viral fusion inhibitor project, CellTiter-Glo luminescence, cherry-picked (AID 652042); assay type: functional, cell-based;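 further: potency for signal decrease meaning cytotoxicity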
[11] = ZM109 Env clade C HIV-1 fusion inhibitors, dose response, HeLa effector, CEM target cells, luciferase, cherry-pick (AID 652058); assay type: functional, cell-based
[12] = off-target signal loss in HeLa-CEM21 co-culture – HeLa F-luc CTL cells, cherry-picked, counter-screen for HIV-1 Env fusion inhibitor project, dose response (AID 652040); assay type: functional, cell-based;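 further: potency for signal decrease marking cytotoxic or nonspecific inhibition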
[13] = inhibitors of clade B AD8 Env fusion, dose response, cell-based, cherry-pick (AID 652062); assay type: functional;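 further: luciferase signal from cell-cell fusion driven by HIV-1 clade B AD8 Env; potency is for inhibitors of fusion seen as a drop in luminescence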
HEK293 [14] = assay: cells; conditions: Homo sapiens
HEK293 [15] = assay: cells; conditions: Homo sapiens; remark: listed apart in the source
[16] = molecular target: T4, Beta-adrenergic receptor kinase 1 (Homo sapiens, UniProt P25098); assay: GRK2 inhibitors displacing RNA aptamer, dose response, biochemical, flow cytometry beads, FAM-aptamer, powder set 1 (AID 588720)
T4 sequence (P25098 whole entry): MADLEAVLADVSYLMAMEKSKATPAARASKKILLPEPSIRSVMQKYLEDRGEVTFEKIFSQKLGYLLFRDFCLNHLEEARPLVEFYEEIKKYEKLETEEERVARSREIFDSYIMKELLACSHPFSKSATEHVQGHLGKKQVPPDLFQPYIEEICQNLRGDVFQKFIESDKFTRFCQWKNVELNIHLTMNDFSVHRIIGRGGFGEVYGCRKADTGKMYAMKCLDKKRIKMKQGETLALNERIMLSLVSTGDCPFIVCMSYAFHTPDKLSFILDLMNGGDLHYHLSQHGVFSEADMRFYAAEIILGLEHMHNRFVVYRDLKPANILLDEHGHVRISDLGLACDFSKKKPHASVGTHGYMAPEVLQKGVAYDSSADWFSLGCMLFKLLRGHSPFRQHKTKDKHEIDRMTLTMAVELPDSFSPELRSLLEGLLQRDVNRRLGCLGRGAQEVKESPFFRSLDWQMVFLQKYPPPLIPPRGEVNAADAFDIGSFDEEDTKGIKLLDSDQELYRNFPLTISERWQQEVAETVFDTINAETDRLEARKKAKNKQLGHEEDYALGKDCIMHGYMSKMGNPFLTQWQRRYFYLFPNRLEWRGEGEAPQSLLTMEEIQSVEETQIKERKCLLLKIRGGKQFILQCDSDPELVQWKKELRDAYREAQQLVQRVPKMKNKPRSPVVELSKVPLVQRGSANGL

Large T antigen, sequence (P03070 whole entry): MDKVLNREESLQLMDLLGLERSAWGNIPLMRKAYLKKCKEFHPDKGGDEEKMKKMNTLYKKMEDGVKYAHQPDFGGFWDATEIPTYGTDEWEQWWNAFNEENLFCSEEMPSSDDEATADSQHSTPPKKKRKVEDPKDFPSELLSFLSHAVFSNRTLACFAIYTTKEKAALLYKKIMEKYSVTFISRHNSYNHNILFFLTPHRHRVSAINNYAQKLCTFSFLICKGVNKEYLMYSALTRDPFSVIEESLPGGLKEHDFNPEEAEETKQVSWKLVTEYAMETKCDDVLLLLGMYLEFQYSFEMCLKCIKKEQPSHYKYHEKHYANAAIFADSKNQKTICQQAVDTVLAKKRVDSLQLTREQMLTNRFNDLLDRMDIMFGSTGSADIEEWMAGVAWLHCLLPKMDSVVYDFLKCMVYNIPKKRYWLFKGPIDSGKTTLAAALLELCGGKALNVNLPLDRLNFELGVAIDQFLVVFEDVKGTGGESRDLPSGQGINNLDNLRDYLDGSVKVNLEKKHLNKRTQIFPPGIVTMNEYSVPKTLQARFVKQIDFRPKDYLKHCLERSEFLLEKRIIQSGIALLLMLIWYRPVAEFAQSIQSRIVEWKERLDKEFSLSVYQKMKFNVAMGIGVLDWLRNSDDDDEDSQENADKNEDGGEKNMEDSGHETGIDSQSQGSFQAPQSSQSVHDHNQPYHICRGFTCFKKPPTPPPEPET

**Q.** For CN1CC(C(=O)O)Cc2c1ccc1ccccc21 (configuration not stated), which IC50 (Large T antigen) is on record?
**A.** 19.4 µM (active)

**Q.** And the AC50 (Trypsin)?
**A.** 5.17 µM (active)

**Q.** What about the AC50 (CAAX prenyl protease 2 [1]) of the same compound?
**A.** 9.61 µM (active)

**Q.** What about the AC50 (CAAX prenyl protease 2 [2]) of the same compound?
**A.** 7.4 µM (active)

**Q.** For CCCc1cc(-c2ccc3c(c2)COc2c4ccccc4nn2-3)on1, which AC50 (HeLa) is on record?
**A.** 40 µM (active)

**Q.** For CCCC(=O)c1ccc(N2CCCCCC2)c(F)c1, which AC50 (HeLa) is on record?
**A.** 205 µM (active)

**Q.** Which AC50 (Escherichia coli) does the source give for COc1ccc(-n2c(Cc3cccn3C)nnc2SCC(=O)Nc2ccc(C(C)=O)cc2)cc1 here?
**A.** 56.8 µM (active)

**Q.** For CC(=O)N(C)c1ccc(OCC(O)Cn2c3ccc(Cl)cc3c3cc(Cl)ccc32)cc1 (configuration not stated), which EC50 [3] is on record?
**A.** 2.7 µM (active)

**Q.** And the EC50 (Streptococcus [4])?
**A.** 9.63 µM (active)

**Q.** And the EC50 (Streptokinase A)?
**A.** 2.66 µM (active)

**Q.** What about the EC50 (Streptococcus [5]) of the same compound?
**A.** 80.6 µM (active)

**Q.** What about the AC50 [6] of the same compound?
**A.** 1.59 µM (active)

**Q.** And the EC50 [7]?
**A.** > 260 µM (inactive)

**Q.** And the AC50 [8]?
**A.** 5.12 µM (active)

**Q.** And the AC50 [9]?
**A.** 2.19 µM (active)

**Q.** And the AC50 [10]?
**A.** 23.2 µM (active)

**Q.** What about the AC50 [11] of the same compound?
**A.** 2.38 µM (active)

**Q.** And the AC50 [12]?
**A.** 2.47 µM (active)

**Q.** What about the AC50 [13] of the same compound?
**A.** 4.49 µM (active)

**Q.** What about the EC50 (HEK293 [14]) of the same compound?
**A.** > 59.6 µM (inactive)

**Q.** And the EC50 (HEK293 [15])?
**A.** > 59.6 µM (inactive)

**Q.** With COC(=O)c1ccc(NC(=O)CCS(=O)(=O)c2ccc(Br)cc2)cc1 as the compound, how does the EC50 [16] read?
**A.** 6.56 µM (active)
